In patent publication US20220062240A1, “METHODS OF TREATING CANCER USING A CLK INHIBITOR” (BioSplice Therapeutics, Inc., priority 2018, published 2022):
pEC50: −log10 of the molar value. Read-outs that look alike come from different tables or passages of the source.

What was measured:
Type in all cases: cell-based
BT-549 = experiment: CellTiter-Glo Viability Assay, breast cancer; settings: Homo sapiens, 96 h; BT-549, breast cancer, four days; read-out: EC50
CAMA1 = experiment: CellTiter-Glo Viability Assay, breast cancer; settings: Homo sapiens, CAMA-1, 96 h; CAMA1, breast cancer, four days; read-out: EC50
DU4475 = experiment: CellTiter-Glo Viability Assay, breast cancer; settings: Homo sapiens, DU-4475, 96 h; DU4475, breast cancer, four days; read-out: EC50
HCC1599 = experiment: CellTiter-Glo Viability Assay, breast cancer; settings: Homo sapiens, 96 h; HCC1599, breast cancer, four days; read-out: EC50
MCF7 = experiment: CellTiter-Glo Viability Assay, breast cancer; settings: Homo sapiens, 96 h; MCF7, breast cancer, four days; read-out: EC50
MDA-MB-231-Luc = experiment: CellTiter-Glo Viability Assay, breast cancer; settings: Homo sapiens, 96 h; MDA-MB-231-Luc, breast cancer, four days; read-out: EC50
T47D = experiment: CellTiter-Glo Viability Assay, breast cancer; settings: Homo sapiens, 96 h, breast cancer, four days, read-out: EC50
ZR-75-1 = experiment: CellTiter-Glo Viability Assay, breast cancer; settings: Homo sapiens, 96 h; ZR-75-1, breast cancer, four days; read-out: EC50
all 50 cell lines = experiment: CellTiter-Glo Viability Assay, average across all cell lines; settings: Homo sapiens; across all 50 cell lines; read-out: average EC50 for inhibition of cancer cell proliferation
Outline: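 Luminescent ATP read-out (CellTiter-Glo) after a 4-day compound exposure at 37° C served as the viability measure. Cells were seeded at 300-3,000/well, compound wells run in duplicate against DMSO controls, and EC50 values came from fitted dose-response curves.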

[1] = tested on: colorectal cancer (6 cell lines); experiment: CellTiter-Glo Viability Assay, colorectal cancer; settings: Homo sapiens, inhibition of cancer cell proliferation
[2] = tested on: haematopoietic & lymphoid tumors (13 cell lines); experiment: CellTiter-Glo Viability Assay, haematopoietic & lymphoid tumors; settings: Homo sapiens, inhibition of cancer cell proliferation
[3] = tested on: liver cancer (3 cell lines); experiment: CellTiter-Glo Viability Assay, liver cancer; settings: Homo sapiens, inhibition of cancer cell proliferation
[4] = tested on: lung cancer (4 cell lines); experiment: CellTiter-Glo Viability Assay, lung cancer; settings: Homo sapiens, inhibition of cancer cell proliferation
[5] = tested on: ovarian cancer (4 cell lines); experiment: CellTiter-Glo Viability Assay, ovarian cancer; settings: Homo sapiens, inhibition of cancer cell proliferation
[6] = tested on: pancreatic cancer (8 cell lines); experiment: CellTiter-Glo Viability Assay, pancreatic cancer; settings: Homo sapiens, inhibition of cancer cell proliferation
[7] = tested on: prostate cancer (5 cell lines); experiment: CellTiter-Glo Viability Assay, prostate cancer; settings: Homo sapiens

## c1cc2cc(c1)-c1cncc3[nH]c(nc13)-c1n[nH]c3ccc(cc13)-c1cncc(c1)CNC2 [Compound 54]
BT-549
  pEC50: 7.12
CAMA1
  pEC50: 6.78
DU4475
  pEC50: 7.24
HCC1599
  pEC50: 7.07
MCF7
  pEC50: 6.10
MDA-MB-231-Luc
  pEC50: 6.82
T47D
  pEC50: 6.78
ZR-75-1
  pEC50: 6.84
All 50 cell lines
  pEC50: 6.34
[1]; HCT-116, HCT116 cell line, read-out: Colorectal cancer, EC50 (μM) HCT116
  EC50: 0.056 µM
[1]; HT-29, HT29 cell line, read-out: Colorectal cancer, EC50 (μM) HT29
  EC50: 1.28 µM
[1]; SW-620, SW620 cell line, read-out: Colorectal cancer, EC50 (μM) SW620
  EC50: 0.041 µM
[1]; DLD-1 cell line, read-out: Colorectal cancer, EC50 (μM) DLD-1
  EC50: 0.136 µM
[1]; SW48 cell line, read-out: Colorectal cancer, EC50 (μM) SW48
  EC50: 0.049 µM
[1]; SW480 cell line, read-out: Colorectal cancer, EC50 (μM) SW480
  EC50: 0.042 µM
[2]; DND41, DND-41 cell line, read-out: Haematopoietic & Lymphoid tumors, EC50 (μM) DND-41
  EC50: 0.031 µM
[2]; MV4-11, MV-4-11 cell line, read-out: Haematopoietic & Lymphoid tumors, EC50 (μM) MV-4-11
  EC50: 0.005 µM
[2]; Rec1, REC-1 cell line, read-out: Haematopoietic & Lymphoid tumors, EC50 (μM) REC-1
  EC50: 0.109 µM
[2]; SU-DHL-4, SUDHL4 cell line, read-out: Haematopoietic & Lymphoid tumors, EC50 (μM) SUDHL4
  EC50: 0.036 µM
[2]; HL-60 cell line, read-out: Haematopoietic & Lymphoid tumors, EC50 (μM) HL-60
  EC50: 0.121 µM
[2]; JM1 cell line, read-out: Haematopoietic & Lymphoid tumors, EC50 (μM) JM1
  EC50: 0.026 µM
[2]; JURKAT, Clone E6-1 cell line, read-out: Haematopoietic & Lymphoid tumors, EC50 (μM) JURKAT, Clone E6-1
  EC50: 0.17 µM
[2]; JeKo-1 cell line, read-out: Haematopoietic & Lymphoid tumors, EC50 (μM) JeKo-1
  EC50: 0.017 µM
[2]; KASUMI-1 cell line, read-out: Haematopoietic & Lymphoid tumors, EC50 (μM) KASUMI-1
  EC50: 0.058 µM
[2]; Loucy cell line, read-out: Haematopoietic & Lymphoid tumors, EC50 (μM) Loucy
  EC50: 0.041 µM
[2]; MOLT-4 cell line, read-out: Haematopoietic & Lymphoid tumors, EC50 (μM) MOLT-4
  EC50: 0.254 µM
[2]; TF-1 cell line, read-out: Haematopoietic & Lymphoid tumors, EC50 (μM) TF-1
  EC50: 0.108 µM
[2]; TOLEDO cell line, read-out: Haematopoietic & Lymphoid tumors, EC50 (μM) TOLEDO
  EC50: 0.022 µM
[3]; SNU-398, SNU398 cell line, read-out: Liver cancer, EC50 SNU398
  pEC50: 7.68
[3]; HEPG2 cell line, read-out: Liver cancer, EC50 HEPG2
  pEC50: 6.42
[3]; PLC/PRF/5 cell line, read-out: Liver cancer, EC50 PLC/PRF/5
  pEC50: 5.75
[4]; A-427, A427 cell line, read-out: Lung cancer, EC50 (μM) A427
  EC50: 0.04 µM
[4]; HCC78, HCC-78 cell line, read-out: Lung cancer, EC50 (μM) HCC-78
  EC50: 0.225 µM
[4]; NCI-H460 cell line, read-out: Lung cancer, EC50 (μM) NCI-H460
  EC50: > 3.5 µM
[4]; NCI-H522 cell line, read-out: Lung cancer, EC50 (μM) NCI-H522
  EC50: 0.04 µM
[5]; PA-1, PA1 cell line, read-out: Ovarian cancer, EC50 (μM) PA1
  EC50: 0.147 µM
[5]; TOV112D, TOV-112D cell line, read-out: Ovarian cancer, EC50 (μM) TOV-112D
  EC50: 0.065 µM
[5]; OV-90 cell line, read-out: Ovarian cancer, EC50 (μM) OV-90
  EC50: 0.532 µM
[5]; OVCAR-3 cell line, read-out: Ovarian cancer, EC50 (μM) OVCAR-3
  EC50: 0.037 µM
[6]; BXPC-3, BxPC3 cell line, read-out: Pancreatic cancer, EC50 BxPC3
  pEC50: 6.44
[6]; CAPAN-1, Capan1 cell line, read-out: Pancreatic cancer, EC50 Capan1
  pEC50: 6.24
[6]; Capan-2, Capan2 cell line, read-out: Pancreatic cancer, EC50 Capan2
  pEC50: 7.03
[6]; MIA PaCa-2 cell line, read-out: Pancreatic cancer, EC50 MIA PaCa-2
  pEC50: 7.39
[6]; PANC 05.04 cell line, read-out: Pancreatic cancer, EC50 PANC 05.04
  pEC50: 6.34
[6]; PANC-1 cell line, read-out: Pancreatic cancer, EC50 PANC-1
  pEC50: 5.57
[6]; UPAFII cell line, read-out: Pancreatic cancer, EC50 UPAFII
  pEC50: 6.59
[7]; DU-145, read-out: Prostate cancer EC50 Du-145
  pEC50: 7.01
[7]; PC-3, PC3 cell line, inhibition of cancer cell proliferation, read-out: Prostate cancer EC50 PC3
  pEC50: 7.26
[7]; 22Rv1 cell line, inhibition of cancer cell proliferation, read-out: Prostate cancer EC50 22Rv1
  pEC50: 6.93
[7]; LNCap clone FGC cell line, inhibition of cancer cell proliferation, read-out: Prostate cancer EC50 LNCap clone FGC
  pEC50: 6.63
[7]; VCaP (Sigma) cell line, inhibition of cancer cell proliferation, read-out: Prostate cancer EC50 VCaP (Sigma)
  pEC50: 6.79
